Reference: ChEMBL document CHEMBL3621109, “Probing Mechanisms of CYP3A Time-Dependent Inhibition Using a Truncated Model System” (ACS Med Chem Lett, 2015)

How the values were obtained:
[1] = Inhibition of CYP3A (unknown origin) using testosterone as substrate; format: ADME, Homo sapiens
[2] = Inhibition of CYP3A (unknown origin) using midazolam as substrate; format: ADME, Homo sapiens

| IC50 [1] [µM] | IC50 [2] [µM] | Structure (SMILES) |
| --- | --- | --- |
| 4.3 | 5 | Cn1ncc(NC(=O)c2ccccc2)c1N1CC[C@H](N)CC(F)(F)C1 |
| 2.5 | 7.7 | Cn1ncc(NC(=O)OCc2ccccc2)c1N1CC[C@H](N)CC(F)(F)C1 |
| 1.7 | 0.84 | Cn1ncc(NC(=O)c2ccccc2)c1N1CCCCC(F)(F)C1 |
|  | > 10 | Cn1ncc(NC(=O)c2ccccc2)c1N1CCC(O)CC(F)(F)C1 (racemic) |
